From patent publication USRE49022E1, “Insecticidal compounds” (SYNGENTA PARTICIPATIONS AG, priority 2013, dated 2022)

Key:
Format in all cases: in vivo
[1] = system: Diabrotica balteata (Corn Root Worm); assay: Diabrotica balteata, artificial diet MTP test; conditions: 120 h, 200 ppm (concentration in well 18 ppm), L2 larvae, larval mortality after 5 days
Protocol: A 24-well microtiter plate (MTP) with artificial diet was treated with test solutions at an application rate of 200 ppm (concentration in well 18 ppm) by pipetting. After drying, the MTP's were infested with L2 larvae (6-10 per well). After an incubation period of 5 days, samples were checked for larval mortality The following compound gave at least 80% control of Diabrotica balteata: 1, 2, 3, 4, 5, 6, 7, 8, 9, 10, 11, 12, 13, 14, 15, 16, 17, 18, 19, 20, 21, 22, 23, 24, 25, 26, 27, 28, 29, 30, 31, 32, 33, 34, 35, 36, 37, 38, 39, 40, 41, 42, 43, 44, 45, 46, 47, 48, 49, 50, 51.

[2] = system: Myzus persicae (Green Peach Aphid); assay: Myzus persicae, sunflower leaf disc spray test; conditions: foliar, 144 h, sprayed sunflower leaf discs, aphid population of mixed ages, mortality after 6 DAT
Protocol: Sunflower leaf discs were placed on agar in a 24-well microtiter plate and sprayed with test solutions at an application rate of 200 ppm. After drying, the leaf discs were infested with an aphid population of mixed ages. After an incubation period of 6 DAT, samples were checked for mortality.

[3] = system: Myzus persicae (Green Peach Aphid); assay: Myzus persicae, sucrose solution / Parafilm test; conditions: 120 h, mixed with sucrose solution under Parafilm, mortality 5 days after infestation
Source text: Test compounds were applied by pipette into 24 well plates and mixed with Sucrose solution. Application rate: 12.5 ppm. The plates were closed with a stretched Parafilm. A plastic stencil with 24 holes is placed onto the plate and infested pea seedlings were placed directly on the Parafilm. The infested plate is closed with a gel blotting paper and another plastic stencil and then turned upside down. 5 days after infestation the samples were checked on mortality.

[4] = system: Plutella xylostella (Diamond Back Moth); assay: Plutella xylostella, artificial diet MTP test; conditions: 144 h, 200 ppm (concentration in well 18 ppm), L2 larvae, 6 days
Protocol: 24-well microtiter plate (MTP) with artificial diet was treated with test solutions at an application rate of 200 ppm (concentration in well 18 ppm) by pipetting. After drying, the MTP's were infested with L2 larvae (7-12 per well). After an incubation period of 6 days, samples were checked for larval mortality and growth regulation. The following compound gave at least 80% mortality of Plutella xylostella: 1, 2, 3, 4, 5, 6, 7, 8, 9, 10, 11, 12, 13, 14, 15, 16, 17, 18, 19, 20, 21, 22, 23, 24, 25, 26, 27, 28, 29, 30, 31, 32, 33, 34, 35, 36, 37, 38, 39, 40, 41, 42, 43, 44, 45, 46, 47, 48, 49, 50.

[5] = system: Spodoptera littoralis (Egyptian Cotton Leafworm); assay: Spodoptera littoralis, cotton leaf disc spray test; conditions: foliar, 72 h, sprayed cotton leaf discs, L1 larvae, 3 days after treatment
Source text: Cotton leaf discs were placed on agar in a 24-well microtiter plate and sprayed with test solutions at an application rate of 200 ppm. After drying, the leaf discs were infested with 5 L1 larvae. The samples were checked for mortality 3 days after treatment (DAT).

[6] = system: Tetranychus urticae (Two-Spotted Spider Mite); assay: Tetranychus urticae, bean leaf disc spray test; conditions: foliar, 192 h, sprayed bean leaf discs, mite populations of mixed ages, 8 days
Source text: Bean leaf discs on agar in 24-well microtiter plates were sprayed with test solutions at an application rate of 200 ppm. After drying, the leaf discs are infested with mite populations of mixed ages. 8 days later, discs were checked for mortality.

[7] = system: Thrips tabaci (Onion Thrips); assay: Thrips tabaci, sunflower leaf disc spray test; conditions: foliar, 168 h, sprayed sunflower leaf discs, mortality after 7 days
[8] = system: Spodoptera littoralis (Egyptian Cotton Leaf Worm); assay: Spodoptera littoralis, agar / lettuce root uptake test; conditions: 144 h, mixed with agar, uptake by lettuce roots, mortality 6 days after infestation
Source text: Test compounds were applied by pipette into 24 well plates and mixed with agar. Application rate: 12.5 ppm. Lettuce seeds were placed on the agar and the multi well plate is closed by another plate which contains also agar. After 7 days the roots have absorbed the compound and the lettuce has grown into the lid plate. The lettuce leafs were now cut off into the lid plate. Spodoptera eggs were pipetted through a plastic stencil on a humid gel blotting paper and the plate closed with it. The samples are checked for mortality 6 days after infestation.

CCc1cc(C(F)(C(F)(F)F)C(F)(F)Cl)cc(Br)c1NC(=O)c1cccc(N(CC)C(=O)c2ccc(C#N)cc2)c1OC (stereo not shown) [Compound 34]
≥ 80%: pest or weed control at 200 ppm [1] | pest or weed control at 200 ppm [2] | pest or weed control at 12.5 ppm [3] | mortality at 200 ppm [4] | mortality at 200 ppm [5] | mortality at 200 ppm [6] | pest or weed control at 200 ppm [7]

O=C(Nc1cccc(C(=O)Nc2c(Br)cc(C(F)(C(F)(F)F)C(F)(F)Cl)cc2OC(F)F)c1F)c1ccc[n+]([O-])c1 (stereo not shown) [Compound 24]
≥ 80%: pest or weed control at 200 ppm [1] | pest or weed control at 200 ppm [2] | pest or weed control at 12.5 ppm [3] | mortality at 200 ppm [4] | mortality at 200 ppm [5] | pest or weed control at 12.5 ppm [8] | mortality at 200 ppm [6] | pest or weed control at 200 ppm [7]

CCc1cc(C(F)(C(F)(F)F)C(F)(F)Cl)cc(Br)c1NC(=O)c1cccc(NC(=O)c2ccncc2)c1OC (stereo not shown) [Compound 20]
≥ 80%: pest or weed control at 200 ppm [1] | pest or weed control at 200 ppm [2] | pest or weed control at 12.5 ppm [3] | mortality at 200 ppm [4] | mortality at 200 ppm [5] | mortality at 200 ppm [6] | pest or weed control at 200 ppm [7]

CCc1cc(C(F)(C(F)(F)F)C(F)(F)Cl)cc(Br)c1NC(=O)c1cccc(NC(=O)c2ccc(C#N)cc2)c1OC (stereo not shown) [Compound 22]
≥ 80%: pest or weed control at 200 ppm [1] | pest or weed control at 200 ppm [2] | pest or weed control at 12.5 ppm [3] | mortality at 200 ppm [4] | mortality at 200 ppm [5] | mortality at 200 ppm [6] | pest or weed control at 200 ppm [7]

CCc1cc(C(F)(C(F)(F)F)C(F)(F)Cl)cc(Br)c1NC(=O)c1cccc(N(CC)C(=O)c2ccncc2)c1OC (stereo not shown) [Compound 38]
≥ 80%: pest or weed control at 200 ppm [1] | pest or weed control at 200 ppm [2] | pest or weed control at 12.5 ppm [3] | mortality at 200 ppm [4] | mortality at 200 ppm [5] | mortality at 200 ppm [6] | pest or weed control at 200 ppm [7]

CCc1cc(C(F)(C(F)(F)F)C(F)(F)Cl)cc(Br)c1NC(=O)c1cccc(N(CC)C(=O)c2ccc(C#N)cc2)c1F (stereo not shown) [Compound 33]
≥ 80%: pest or weed control at 200 ppm [1] | pest or weed control at 200 ppm [2] | pest or weed control at 12.5 ppm [3] | mortality at 200 ppm [4] | mortality at 200 ppm [5] | mortality at 200 ppm [6] | pest or weed control at 200 ppm [7]

CCc1cc(C(F)(C(F)(F)F)C(F)(F)Cl)cc(Br)c1NC(=O)c1cccc(NC(=O)c2ccc[n+]([O-])c2)c1OC (stereo not shown) [Compound 30]
≥ 80%: pest or weed control at 200 ppm [1] | pest or weed control at 200 ppm [2] | pest or weed control at 12.5 ppm [3] | mortality at 200 ppm [4] | mortality at 200 ppm [5] | mortality at 200 ppm [6] | pest or weed control at 200 ppm [7]

CCc1cc(C(F)(C(F)(F)F)C(F)(F)Cl)cc(Br)c1NC(=O)c1cccc(NC(=O)c2ccc[n+]([O-])c2)c1F (stereo not shown) [Compound 28]
≥ 80%: pest or weed control at 200 ppm [1] | pest or weed control at 200 ppm [2] | pest or weed control at 12.5 ppm [3] | mortality at 200 ppm [4] | mortality at 200 ppm [5] | mortality at 200 ppm [6] | pest or weed control at 200 ppm [7]

CCc1cc(C(F)(C(F)(F)F)C(F)(F)Cl)cc(Br)c1NC(=O)c1cccc(NC(=O)c2cc[n+]([O-])cc2)c1OC (stereo not shown) [Compound 29]
≥ 80%: pest or weed control at 200 ppm [1] | pest or weed control at 200 ppm [2] | pest or weed control at 12.5 ppm [3] | mortality at 200 ppm [4] | mortality at 200 ppm [5] | mortality at 200 ppm [6] | pest or weed control at 200 ppm [7]

CCc1cc(C(F)(C(F)(F)F)C(F)(F)Cl)cc(Br)c1NC(=O)c1cccc(NC(=O)c2cccnc2)c1F (stereo not shown) [Compound 18]
≥ 80%: pest or weed control at 200 ppm [1] | pest or weed control at 200 ppm [2] | pest or weed control at 12.5 ppm [3] | mortality at 200 ppm [4] | mortality at 200 ppm [5] | mortality at 200 ppm [6] | pest or weed control at 200 ppm [7]

CCc1cc(C(F)(C(F)(F)F)C(F)(F)Cl)cc(Br)c1NC(=O)c1cccc(NC(=O)c2ccncc2)c1F (stereo not shown) [Compound 17]
≥ 80%: pest or weed control at 200 ppm [1] | pest or weed control at 200 ppm [2] | pest or weed control at 12.5 ppm [3] | mortality at 200 ppm [4] | mortality at 200 ppm [5] | mortality at 200 ppm [6] | pest or weed control at 200 ppm [7]

CCc1cc(C(F)(C(F)(F)F)C(F)(F)Cl)cc(Br)c1NC(=O)c1cccc(N(CC)C(=O)c2cc[n+]([O-])cc2)c1OC (stereo not shown) [Compound 46]
≥ 80%: pest or weed control at 200 ppm [1] | pest or weed control at 200 ppm [2] | pest or weed control at 12.5 ppm [3] | mortality at 200 ppm [4] | mortality at 200 ppm [5] | mortality at 200 ppm [6] | pest or weed control at 200 ppm [7]

CCc1cc(C(F)(C(F)(F)F)C(F)(F)Cl)cc(Br)c1NC(=O)c1cccc(N(CC)C(=O)c2cccnc2)c1OC (stereo not shown) [Compound 42]
≥ 80%: pest or weed control at 200 ppm [1] | pest or weed control at 200 ppm [2] | pest or weed control at 12.5 ppm [3] | mortality at 200 ppm [4] | mortality at 200 ppm [5] | mortality at 200 ppm [6] | pest or weed control at 200 ppm [7]

CCc1cc(C(F)(C(F)(F)F)C(F)(F)Cl)cc(Br)c1NC(=O)c1cccc(NC(=O)c2cc[n+]([O-])cc2)c1F (stereo not shown) [Compound 27]
≥ 80%: pest or weed control at 200 ppm [1] | pest or weed control at 200 ppm [2] | pest or weed control at 12.5 ppm [3] | mortality at 200 ppm [4] | mortality at 200 ppm [5] | mortality at 200 ppm [6] | pest or weed control at 200 ppm [7]

CCc1cc(C(F)(C(F)(F)F)C(F)(F)Cl)cc(Br)c1NC(=O)c1cccc(N(CC)C(=O)c2ccc[n+]([O-])c2)c1F (stereo not shown) [Compound 49]
≥ 80%: pest or weed control at 200 ppm [1] | pest or weed control at 200 ppm [2] | pest or weed control at 12.5 ppm [3] | mortality at 200 ppm [4] | mortality at 200 ppm [5] | mortality at 200 ppm [6] | pest or weed control at 200 ppm [7]

CCc1cc(C(F)(C(F)(F)F)C(F)(F)Cl)cc(Br)c1NC(=O)c1cccc(NC(=O)c2ccc(C#N)cc2)c1F (stereo not shown) [Compound 19]
≥ 80%: pest or weed control at 200 ppm [1] | pest or weed control at 200 ppm [2] | pest or weed control at 12.5 ppm [3] | mortality at 200 ppm [4] | mortality at 200 ppm [5] | mortality at 200 ppm [6] | pest or weed control at 200 ppm [7]

CCc1cc(C(F)(C(F)(F)F)C(F)(F)Cl)cc(Br)c1NC(=O)c1cccc(N(CC)C(=O)c2ccncc2)c1F (stereo not shown) [Compound 37]
≥ 80%: pest or weed control at 200 ppm [1] | pest or weed control at 200 ppm [2] | pest or weed control at 12.5 ppm [3] | mortality at 200 ppm [4] | mortality at 200 ppm [5] | mortality at 200 ppm [6] | pest or weed control at 200 ppm [7]

CCN(C(=O)c1ccncc1)c1cccc(C(=O)Nc2c(Cl)cc(C(F)(C(F)F)C(F)(F)F)cc2Br)c1OC (stereo not shown) [Compound 51, N-[3-[[2-bromo-6-chloro-4-[1-(difluoromethyl)-1,2,2,2-tetrafluoro-ethyl]phenyl]carbamoyl]-2-methoxy-phenyl]-N-ethyl-pyridine-4-carboxamide]
≥ 80%: pest or weed control at 200 ppm [1] | pest or weed control at 200 ppm [2] | pest or weed control at 12.5 ppm [3] | mortality at 200 ppm [5] | mortality at 200 ppm [6] | pest or weed control at 200 ppm [7]

CCc1cc(C(F)(C(F)(F)F)C(F)(F)Cl)cc(Br)c1NC(=O)c1cccc(N(CC)C(=O)c2cc[n+]([O-])cc2)c1F (stereo not shown) [Compound 45]
≥ 80%: pest or weed control at 200 ppm [1] | pest or weed control at 200 ppm [2] | pest or weed control at 12.5 ppm [3] | mortality at 200 ppm [4] | mortality at 200 ppm [5] | mortality at 200 ppm [6] | pest or weed control at 200 ppm [7]
